We go through four compounds from US11039613B2, “Germination promoters” (SYNGENTA PARTICIPATIONS AG, priority 2017, dated 2021).

In data set [1] the test system is NK Falkone corn seeds. The data set can be described thus: Corn seed germination, cold stress (15° C.). The following applies: for T50 (% vs control): control T50 = 110 hours; for Slope compared with closest prior art compound P2 / T50 compared with closest prior art compound P2: at equivalent rates, vs P2. It is filed as in vivo. As to the method: The effect of compounds of Formula (II-1 and III-1) on the germination of NK Falkone corn seeds under salt and cold stress was evaluated as follows.
(§1) NK Falkone corn seeds (harvested in 2015) were sorted by size using a sieve to keep away round seeds.
(§2) The corn seeds were placed in 24 well plates (each plate was considered as one experimental unit or replicate). Germination was initiated by the addition of 200 μl of distilled water containing 0.5% DMSO per well. 8 replicates (i.e. 8 plates) were used for each treatment characterization. Plates were sealed using seal foil (Polyolefin Art. Nr. 900320) from HJ-BIOANALYTIK. All plates were placed in two carrousels in a climatic chamber at 15° C. The experiment was laid out in a completely randomized design in climatic chamber with 60% Relative Humidity.
(§3) Germination was followed over time by taking photographs at different time points. Image analysis was performed automatically with a macro which was developed using the Image J software. A dynamic analysis of germination was carried out by fitting a logistic curve. Three parameters were calculated from the logistic curve: the T50; the slope and the plateau. All three parameters have a high agronomical relevance and are key requirements to ensure a good early crop-establishment. The T50 and slope for a selection of compounds are outlined in Table 2 below. All the values are expressed as percentages compared to an untreated control. All the three parameters are calculated considering 8 replicates and the kinetic parameters are separately determined for each germination curve. Data in bold indicate germination enhancing statistically significant differences between treated seeds and untreated control (p<0.05). T50 corresponds to the time needed for half of the seed population to germinate. Higher negative %-values indicate faster germination. Slope indicates how synchronous the germination of the seed population is. Positive values indicate steeper curve. The steeper the curve, the better and more uniform the germination is.

Data set [2] concerns NK Falkone corn seeds. Description: Corn seed germination, salt (NaCl, 100 mM) and cold stresses (15° C.). In kind it is in vivo. The conditions noted are these: cold 15° C. and salt 100 mM NaCl. The protocol:
as §1, §2, §3
(§4) The effect of compounds of Formula (III-1 and P1) on the germination of NK Falkone corn seeds under salt and cold stress was evaluated as follows.
The experimental protocol was the same as in Example B1, except that germination was initiated by the addition of 200 μl of distilled water containing 0.5% DMSO and 100 mM NaCl per well.

Data set [3] deals with NK Falkone corn seeds. Description: Corn seed germination, salt (NaCl, 100 mM) stress and optimal temperature (23° C.). It is filed as in vivo. The following applies: salt (NaCl) stress. The protocol: as §1
The corn seeds were placed in 24 well plates (each plate was considered as one experimental unit or replicate). […] 8 replicates (i.e. 8 plates) were used for each treatment characterization. Plates were sealed using seal foil (Polyolefin Art. Nr. 900320) from HJ-BIOANALYTIK. All plates were placed in two carrousels in a climatic chamber at 15° C. The experiment was laid out in a completely randomized design in climatic chamber with 60% Relative Humidity.
as §3
The experimental protocol was the same as in Example B1, except that the plates were placed in a climatic chamber at 23° C.

Data set [4] concerns NK Falkone corn seeds. The data set can be described thus: Corn seed germination, osmotic stress (PEG 2%) and cold stress (15° C.). In kind it is in vivo. The conditions noted are these: osmotic (PEG 2%) and cold 15° C. As to the method: as §1, §2, §3, §4
The experimental protocol was the same as in Example B1, except that germination was initiated by the addition of 200 μl of distilled water containing 0.5% DMSO and 2% PEG per well.

The nature of data set [5]: Hydrolytic stability. It is filed as physicochemical. The conditions noted are these: 40° C.; for half-life: aqueous buffer/acetonitrile solution, pH 9, pH 9, buffer/acetonitrile. The protocol: Prior to conducting the individual hydrolytic stability assays, stock solutions containing 1000 ppm of each test compound (i.e. compounds III-1 and P1) were prepared in acetonitrile.
The reagents used in the assays were prepared as follows. A 20 mM buffer solution was prepared from a stock solution of 20 mM mixed acetate, borate and phosphate buffer and the pH adjusted to 7 or 9 as required.
Test solutions were prepared in LC vials for each test compound in the following manner: Hydrolytic Stability: Buffer (750 μL)+acetonitrile (250 μL)+compound stock solution (2 to 40 μL).
The buffers were initially dispensed into separate glass LC vials, placed into an autosampler complete with thermostat set at 40° C. and allowed to equilibrate for 30 minutes prior to starting the individual assays.
Analysis was carried out on Waters LCMS systems under reverse phase conditions using 10 cm C18 columns and acetonitrile (HPLC grade) acidified water (0.2% formic acid) mobile phase at a flow rate of 1 ml min-1. Peak detection was at the optimum wavelength (230-250 nm) and peak areas were used for quantification
Reactions were initiated by addition of the compound solution and monitored through a series of repeat injections made directly from the vial into the HPLC system at regular time intervals. Initial and subsequent measurements of peak area attributable to the test compound were used to fit exponential half-lives and calculate first-order rate constants.
Consequently, the percentage of compound remaining was recorded at the last assessment time.

Where two headings read alike, the source gives them in different places.

Regarding `CC1=CC(O/C=C2/C(=O)NC3c4ccccc4CC23)N(c2cc(C(F)(F)F)cc(C(F)(F)F)c2)C1=O` (stereo not shown) [Compound P1, reference compound], the “Slope (% vs control)” value in data set [1] (Rate 0.4 μM) amounted to 18.4 % vs control; in data set [1] (Rate 2 μM), 7.36 % vs control; in data set [1] (Rate 10 μM) it was 63.91 % vs control; in data set [1] (Rate 50 μM) it was 144.52 % vs control; in data set [2] (Rate 0.4 μM), 14.2 % vs control; in data set [2] (Rate 2 μM) it was 11.7 % vs control. Moreover, the “Slope (% vs control)” value in data set [2] (Rate 10 μM) is recorded as 83.9 % vs control; in data set [2] (Rate 50 μM), 61.2 % vs control; in data set [3] (Rate 0.4 μM), 4.1 % vs control; in data set [3] (Rate 2 μM) it was 2.8 % vs control; in data set [3] (Rate 10 μM), 70.8 % vs control; in data set [3] (Rate 50 μM) it was 111.4 % vs control. Also, the “Slope (% vs control)” value in data set [4] (Rate 0.4 μM) is 2.7 % vs control; in data set [4] (Rate 2 μM), 3.2 % vs control; in data set [4] (Rate 10 μM), 20.9 % vs control; in data set [4] (Rate 50 μM) it was 1.3 % vs control. The “T50 (% vs control)” value is given as −2.2 % vs control in data set [1] (Rate 0.4 μM); −1.4 % vs control in data set [1] (Rate 2 μM); −8.95 % vs control in data set [1] (Rate 10 μM); −11.7 % vs control in data set [1] (Rate 50 μM); 0.5 % vs control in data set [2] (Rate 0.4 μM); −0.3 % vs control in data set [2] (Rate 2 μM). Further, the “T50 (% vs control)” value is reported as −10.7 % vs control in data set [2] (Rate 10 μM); −5.1 % vs control in data set [2] (Rate 50 μM); −0.4 % vs control in data set [3] (Rate 0.4 μM); 3.3 % vs control in data set [3] (Rate 2 μM); −10.2 % vs control in data set [3] (Rate 10 μM); −15.2 % vs control in data set [3] (Rate 50 μM). In addition, the “T50 (% vs control)” value is on record as −0.8 % vs control in data set [4] (Rate 0.4 μM), −0.8 % vs control in data set [4] (Rate 2 μM), −2.8 % vs control in data set [4] (Rate 10 μM) and −4.3 % vs control in data set [4] (Rate 50 μM). For the same compound, the half-life in data set [5] (less polar isomer, read-out: Hydrolytic stability pH9 (t½), less polar isomer (converted)) was 59 h; in data set [5] (more polar isomer, read-out: Hydrolytic stability pH9 (t½), more polar isomer) it was above 59 h. The “% remaining, less polar isomer” value in data set [5] (pH 9, at 17.3 hours, less polar isomer) was determined as 85.5% remaining at 17.3 hours. For the same compound, the “% remaining, more polar isomer” value in data set [5] (pH 9, at 17.3 hours, more polar isomer) is 97.9% remaining at 17.3 hours.

`CC1=CC(O/C=C2/C(=O)OC3c4ccccc4CC23)N(c2cc(C(F)(F)F)cc(C(F)(F)F)c2)C1=O` (stereo not shown) [Compound P2, reference compound]: the entries for the “Slope (% vs control)” value in data set [1] (Rate 2 μM), in data set [1] (Rate 10 μM) and in data set [1] (Rate 50 μM) were −19.5 % vs control, −13.4 % vs control and −19.7 % vs control, respectively. The “T50 (% vs control)” value in data set [1] (Rate 2 μM) is listed as −0.8 % vs control; in data set [1] (Rate 10 μM) it was −2.0 % vs control; in data set [1] (Rate 50 μM) it was −0.9 % vs control.

On to `CC1=C[C@H](O/C=C2/C(=O)O[C@@H]3Cc4ccccc4[C@H]23)N(c2cc(C(F)(F)F)cc(C(F)(F)F)c2)C1=O` [II-1a], for which, in data set [1] (Rate 10 μM), the “Slope (% vs control)” value stood at 18.70 % vs control and the “T50 (% vs control)” value is −2.70 % vs control. Also, in data set [1] (Rate 50 μM), the “Slope (% vs control)” value stood at 68.50 % vs control and the “T50 (% vs control)” value is −5.30 % vs control. Further, in data set [1] (Rate 250 μM), the “Slope (% vs control)” value turned out to be 37.00 % vs control and the “T50 (% vs control)” value is recorded as −3.20 % vs control. In data set [1], the “Slope compared with closest prior art compound P2” value is recorded as “higher slope” and the “T50 compared with closest prior art compound P2” value is “lower T50”.

`CC1=C[C@@H](O/C=C2/C(=O)O[C@@H]3Cc4ccccc4[C@H]23)N(c2cc(C(F)(F)F)cc(C(F)(F)F)c2)C1=O` [II-1b]: in data set [1] (Rate 10 μM), the “Slope (% vs control)” value is 19.20 % vs control and the “T50 (% vs control)” value is listed as −2.50 % vs control. In data set [1] (Rate 50 μM), the “Slope (% vs control)” value is given as 41.40 % vs control and the “T50 (% vs control)” value is recorded as −5.10 % vs control. Moreover, in data set [1] (Rate 250 μM), the “Slope (% vs control)” value is given as 62.40 % vs control and the “T50 (% vs control)” value was −5.90 % vs control. Moreover, in data set [1], the “Slope compared with closest prior art compound P2” value is “higher slope” and the “T50 compared with closest prior art compound P2” value is listed as “lower T50”.
